Results reported in ChEMBL document CHEMBL1201862, “PubChem BioAssay data set” (2004).
Calls of active or inactive are those of the source.

Legend:
[1] = inhibitors of Bluetongue virus cytopathic effect, confirmation, arbovirus, BSR cells (AID 1250); type: functional;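 also: protection from viral cytopathic effect measured as cell viability by ATP luminescence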
HEK293 = assay: inhibitors of LMP1-driven NF-kB reporter, dose response, cell-based, HEK293, luciferase, cherry-pick (AID 588343); type: functional; details: Homo sapiens
Interleukin-8 = Interleukin-8 (Homo sapiens, UniProt P10145); assay: Dose Response confirmation of uHTS small molecule hits for cystic fibrosis induced NFkb Inhibitors in a PAF-induced IL8 counterscreen.; type: functional; details: read-out: IC50_Mean
Chain of Interleukin-8 (P10145 whole entry, the tested form may be a part): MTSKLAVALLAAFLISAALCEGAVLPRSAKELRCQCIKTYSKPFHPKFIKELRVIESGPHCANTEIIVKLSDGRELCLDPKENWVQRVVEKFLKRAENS

[2] = inhibitors of HIV Env-driven cell fusion, dose response, cherry-pick (AID 652057); type: functional, cell-based
[3] = CEM21 lymphoblast cell cytotoxicity, dose response, cytotoxicity control for viral fusion inhibitor project, CellTiter-Glo luminescence, cherry-picked (AID 652042); type: functional, cell-based;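 also: potency for signal decrease meaning cytotoxicity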
[4] = ZM109 Env clade C HIV-1 fusion inhibitors, dose response, HeLa effector, CEM target cells, luciferase, cherry-pick (AID 652058); type: functional, cell-based
[5] = off-target signal loss in HeLa-CEM21 co-culture – HeLa F-luc CTL cells, cherry-picked, counter-screen for HIV-1 Env fusion inhibitor project, dose response (AID 652040); type: functional, cell-based;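 also: potency for signal decrease marking cytotoxic or nonspecific inhibition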
[6] = inhibitors of clade B AD8 Env fusion, dose response, cell-based, cherry-pick (AID 652062); type: functional;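 also: luciferase signal from cell-cell fusion driven by HIV-1 clade B AD8 Env; potency is for inhibitors of fusion seen as a drop in luminescence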
[7] = HEp-2 cell cytotoxicity, dose response, cytotoxicity control for RSV inhibitor project, HTS (AID 2410); type: functional; details: human respiratory syncytial virus
[8] = tested on: Streptococcus sp. 'group A'; assay: growth inhibition of control SK(-) GAS strain, dose response, counter-screen for streptokinase expression inhibitor project, luminescence, kanamycin, BacTiterGlo, confirmation (AID 1900); type: functional, organism-based
Streptokinase A = target: T1, Streptokinase A (Streptococcus pyogenes serotype M1, UniProt P10520); assay: S. pyogenes streptokinase expression inhibitors, potency, dose response, plasminogen activation absorbance, OD405 (AID 1914); type: functional, Streptococcus pyogenes M1 GAS;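 also: secreted streptokinase activity via plasminogen activation per viability signal from cell pellet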
T1 sequence (P10520 whole entry): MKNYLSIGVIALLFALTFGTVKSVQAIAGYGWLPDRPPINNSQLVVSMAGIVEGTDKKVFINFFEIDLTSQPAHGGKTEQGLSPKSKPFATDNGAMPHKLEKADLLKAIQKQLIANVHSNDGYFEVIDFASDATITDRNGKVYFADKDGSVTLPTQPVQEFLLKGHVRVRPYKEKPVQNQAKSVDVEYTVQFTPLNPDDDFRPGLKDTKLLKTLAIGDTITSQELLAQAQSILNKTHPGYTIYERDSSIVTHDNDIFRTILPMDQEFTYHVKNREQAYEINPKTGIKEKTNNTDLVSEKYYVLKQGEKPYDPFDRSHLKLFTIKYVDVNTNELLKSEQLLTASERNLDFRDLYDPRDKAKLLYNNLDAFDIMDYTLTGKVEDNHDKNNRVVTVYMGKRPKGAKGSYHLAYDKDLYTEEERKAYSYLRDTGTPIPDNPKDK

[9] = target: Induced myeloid leukemia cell differentiation protein Mcl-1 (Homo sapiens, UniProt Q07820); type: functional
Chain of Induced myeloid leukemia cell differentiation protein Mcl-1 (Q07820 whole entry): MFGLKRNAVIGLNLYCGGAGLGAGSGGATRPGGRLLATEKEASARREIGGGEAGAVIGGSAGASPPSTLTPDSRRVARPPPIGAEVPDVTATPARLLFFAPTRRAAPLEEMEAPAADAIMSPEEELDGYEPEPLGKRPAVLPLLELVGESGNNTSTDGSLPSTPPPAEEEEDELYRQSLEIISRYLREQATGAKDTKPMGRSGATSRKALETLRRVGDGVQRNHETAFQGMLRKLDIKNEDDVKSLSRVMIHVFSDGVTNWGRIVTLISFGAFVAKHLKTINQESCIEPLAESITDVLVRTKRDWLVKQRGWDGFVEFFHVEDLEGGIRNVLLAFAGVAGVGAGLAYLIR

Streptococcus = assay: Group A Streptococcus viability loss, dose response, counter-screen for streptokinase expression inhibitor project, luminescence, BacTiterGlo (AID 1915); type: functional, organism-based;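 also: potency for reduction of bacterial viability or growth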
[10] = target: T2, Small ubiquitin-related modifier 2 (Homo sapiens, UniProt P61956); assay: SUMO2–SIM peptide binding inhibitors, dose response, selectivity assay for SUMO1 interaction inhibitor project, biochemical, fluorescence polarization, uHTS hits (AID 624385); type: functional; details: read-out: IC50_Mean
T2 sequence (P61956 whole entry): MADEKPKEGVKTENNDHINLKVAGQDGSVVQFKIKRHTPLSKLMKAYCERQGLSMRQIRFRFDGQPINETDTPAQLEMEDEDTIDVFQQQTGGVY

[11] = target: T3, Small ubiquitin-related modifier 1 (Homo sapiens, UniProt P63165); assay: inhibitors of SUMO1 peptide binding, dose response, biochemical, fluorescence polarization, uHTS hits (AID 624382); type: functional; details: read-out: IC50_Mean
T3 sequence (P63165 whole entry): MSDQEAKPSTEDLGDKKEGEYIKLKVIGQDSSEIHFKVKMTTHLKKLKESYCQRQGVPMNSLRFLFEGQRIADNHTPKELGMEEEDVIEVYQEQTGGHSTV

[12] = target: T2, Small ubiquitin-related modifier 2; assay: inhibitors of SUMO2 protein-protein interaction, dose response, selectivity assay for SUMO1 interaction inhibitor project, biochemical, FRET, human SUMO2, uHTS hits (AID 624384); type: functional; details: read-out: IC50_Mean
[13] = target: T3, Small ubiquitin-related modifier 1; assay: inhibitors of SUMO1 partner interactions, dose response, biochemical, FRET (AID 624383); type: functional; details: read-out: IC50_Mean
Coagulation factor XII = target: T4, Coagulation factor XII (Homo sapiens, UniProt P00748); type: functional;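 also: activated factor XIIa alpha cleaving a fluorogenic AMC peptide substrate; inhibitor potency from loss of enzyme activity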
T4 sequence (P00748 whole entry): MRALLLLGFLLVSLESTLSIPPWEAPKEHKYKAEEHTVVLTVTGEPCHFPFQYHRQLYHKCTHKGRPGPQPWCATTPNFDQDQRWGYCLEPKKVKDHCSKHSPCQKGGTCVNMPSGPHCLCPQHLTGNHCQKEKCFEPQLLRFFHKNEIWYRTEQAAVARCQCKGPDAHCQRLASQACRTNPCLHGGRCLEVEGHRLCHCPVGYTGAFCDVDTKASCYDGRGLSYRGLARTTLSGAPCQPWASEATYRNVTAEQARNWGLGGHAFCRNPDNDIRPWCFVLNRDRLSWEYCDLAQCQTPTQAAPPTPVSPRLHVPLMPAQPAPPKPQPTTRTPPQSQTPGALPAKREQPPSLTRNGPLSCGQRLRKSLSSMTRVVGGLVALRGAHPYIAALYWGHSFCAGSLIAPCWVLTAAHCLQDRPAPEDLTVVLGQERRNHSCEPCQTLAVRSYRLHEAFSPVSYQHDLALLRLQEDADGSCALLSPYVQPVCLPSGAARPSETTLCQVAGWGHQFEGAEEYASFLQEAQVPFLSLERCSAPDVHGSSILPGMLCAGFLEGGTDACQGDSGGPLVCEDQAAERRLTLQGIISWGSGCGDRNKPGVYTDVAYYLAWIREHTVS

HeLa = assay: HeLa cell cytotoxicity, dose response, cytotoxicity control for MITF activator project, CellTiter-Glo luminescence, cherry-pick samples (AID 540259); type: functional, cell-based; details: Homo sapiens
[14] = target: T5, Methionyl-tRNA synthetase, putative (Trypanosoma brucei brucei, UniProt Q38C91); type: functional, Trypanosoma brucei brucei strain 927/4 GUTat10.1
T5 sequence (Q38C91 whole entry): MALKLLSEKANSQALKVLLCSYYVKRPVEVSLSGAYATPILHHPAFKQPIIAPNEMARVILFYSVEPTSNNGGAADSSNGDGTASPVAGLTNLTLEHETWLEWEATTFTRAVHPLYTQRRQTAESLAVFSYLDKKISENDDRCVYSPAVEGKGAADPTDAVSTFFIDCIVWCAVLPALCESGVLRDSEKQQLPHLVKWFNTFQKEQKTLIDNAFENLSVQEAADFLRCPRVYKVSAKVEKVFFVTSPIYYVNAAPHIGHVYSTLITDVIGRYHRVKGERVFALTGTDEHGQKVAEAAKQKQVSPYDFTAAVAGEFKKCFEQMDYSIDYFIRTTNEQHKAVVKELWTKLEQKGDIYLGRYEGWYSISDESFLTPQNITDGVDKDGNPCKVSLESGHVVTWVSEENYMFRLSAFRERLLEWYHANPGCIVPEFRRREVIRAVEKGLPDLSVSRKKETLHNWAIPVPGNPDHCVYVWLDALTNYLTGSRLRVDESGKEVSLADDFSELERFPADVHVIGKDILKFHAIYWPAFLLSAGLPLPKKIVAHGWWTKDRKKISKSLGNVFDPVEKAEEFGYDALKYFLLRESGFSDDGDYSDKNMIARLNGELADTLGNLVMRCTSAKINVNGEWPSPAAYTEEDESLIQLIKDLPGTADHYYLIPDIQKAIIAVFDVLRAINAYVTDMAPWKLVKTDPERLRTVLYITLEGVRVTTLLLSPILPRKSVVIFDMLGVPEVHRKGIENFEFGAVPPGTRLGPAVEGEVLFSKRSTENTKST

[15] = Counterscreen for inhibitors of Trypanosoma brucei methionyl tRNA synthetase (MetRS): Luminescence-based cell-based high throughput dose response assay to identify compounds that are cytotoxic to Jurkat human T lymphocyte cells.; type: functional
[16] = target: T5, Methionyl-tRNA synthetase, putative; type: functional, Trypanosoma brucei brucei strain 927/4 GUTat10.1; remark: listed apart in the source
[17] = inhibitors of intracellular T. cruzi replication, confirmation, NIH3T3 host cells, beta-gal luminescence (AID 2044); type: functional, cell-based;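 also: intracellular parasites grown in NIH/3T3 mouse fibroblasts as host cells; luminescent beta-galactosidase reporter signal from transgenic T. cruzi replicating inside host cells; inhibitors lower the luminescence signal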
[18] = cytotoxicity toward NIH3T3 fibroblasts, dose response, counter-screen, cell-based, ATP luminescence, mouse fibroblasts (AID 2010); type: functional;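 also: cells exposed to compound for about 90 hours before reading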
[19] = target: Photoreceptor-specific nuclear receptor (Homo sapiens, UniProt Q9Y5X4); type: functional, cell-based;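 also: CHO-S cells with Gal4-NCOR and VP16-NR2E3 two-hybrid luciferase reporter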
Chain of Photoreceptor-specific nuclear receptor (Q9Y5X4 whole entry, the tested form may be a part): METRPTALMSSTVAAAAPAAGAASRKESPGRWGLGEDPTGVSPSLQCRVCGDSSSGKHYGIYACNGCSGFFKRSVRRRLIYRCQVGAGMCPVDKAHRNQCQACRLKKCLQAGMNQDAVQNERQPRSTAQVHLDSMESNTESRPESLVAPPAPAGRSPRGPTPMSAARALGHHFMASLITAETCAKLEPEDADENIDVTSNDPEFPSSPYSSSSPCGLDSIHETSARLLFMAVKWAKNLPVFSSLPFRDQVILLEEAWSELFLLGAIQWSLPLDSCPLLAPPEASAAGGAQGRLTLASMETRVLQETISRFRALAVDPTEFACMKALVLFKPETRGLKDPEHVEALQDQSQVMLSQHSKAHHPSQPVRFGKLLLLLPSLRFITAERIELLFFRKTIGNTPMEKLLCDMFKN

[20] = microbe, parasite or virus in culture; type: functional; details: Mycobacterium tuberculosis
[21] = target: T6, Corticotropin-releasing factor receptor 2/Corticotropin-releasing factor-binding protein (Homo sapiens, UniProt P24387+Q13324); assay: Dose Response confirmation of uHTS hits for small molecule antagonists of the CRF-binding protein and CRF-R2 receptor complex.; type: functional; details: read-out: IC50_Mean
T6 sequence (Q13324 whole entry): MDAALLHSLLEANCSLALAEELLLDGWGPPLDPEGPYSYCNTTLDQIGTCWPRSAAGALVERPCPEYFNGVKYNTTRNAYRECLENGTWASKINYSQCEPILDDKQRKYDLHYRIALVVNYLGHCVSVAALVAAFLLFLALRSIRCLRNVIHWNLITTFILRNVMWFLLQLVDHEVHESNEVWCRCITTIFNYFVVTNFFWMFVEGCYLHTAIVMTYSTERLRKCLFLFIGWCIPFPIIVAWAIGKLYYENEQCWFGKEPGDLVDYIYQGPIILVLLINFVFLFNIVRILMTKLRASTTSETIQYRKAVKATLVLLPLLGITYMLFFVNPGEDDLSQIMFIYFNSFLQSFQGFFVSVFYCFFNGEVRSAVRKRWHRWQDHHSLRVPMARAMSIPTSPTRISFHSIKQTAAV
T6 sequence (P24387 whole entry): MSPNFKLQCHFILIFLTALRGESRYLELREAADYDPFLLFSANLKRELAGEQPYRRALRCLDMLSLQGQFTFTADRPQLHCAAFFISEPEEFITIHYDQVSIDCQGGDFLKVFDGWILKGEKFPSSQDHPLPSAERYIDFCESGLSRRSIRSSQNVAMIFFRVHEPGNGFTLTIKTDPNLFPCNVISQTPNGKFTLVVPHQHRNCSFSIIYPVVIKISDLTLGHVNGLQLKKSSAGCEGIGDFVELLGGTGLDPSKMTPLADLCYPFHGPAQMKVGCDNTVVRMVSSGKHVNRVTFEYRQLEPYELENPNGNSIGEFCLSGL

[22] = target: T6, Corticotropin-releasing factor receptor 2/Corticotropin-releasing factor-binding protein; assay: activators of CRF receptor 2 with binding protein – uHTS hits, confirmation (AID 602473); type: functional; details: read-out: EC50_Mean
[23] = CRF-BP/CRF-R2 complex antagonists, dose response, cell-based, uHTS hits, 384-well (AID 651639); type: functional, Homo sapiens; details: read-out: IC50_Mean
[24] = target: V-type proton ATPase subunit c' (Saccharomyces cerevisiae S288c, UniProt P32842); assay: Dose Response of Small Molecules that Regulate V-ATPase Proton Transport in Yeast using pHLuorin, Cherry Pick 2.; type: functional; details: read-out: EC50_MICROM
Chain of V-type proton ATPase subunit c' (P32842 whole entry): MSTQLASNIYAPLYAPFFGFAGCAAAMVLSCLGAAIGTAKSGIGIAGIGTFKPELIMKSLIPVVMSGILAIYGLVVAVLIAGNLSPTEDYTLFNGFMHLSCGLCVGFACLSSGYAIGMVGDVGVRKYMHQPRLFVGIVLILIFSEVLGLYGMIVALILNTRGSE

Clc1ccccc1C1=Nn2c(nnc2-c2ccncc2)SC1
active: IC50 [1] 22.6 µM | AC50 (HEK293) 14.2 µM | IC50 (Interleukin-8) 8.72 µM | AC50 [2] 3.15 µM | AC50 [3] 63.6 µM | AC50 [4] 1.45 µM | AC50 [5] 1.96 µM | AC50 [6] 1.83 µM

COc1ccc(O)c(C(=O)c2cc(SCC(=O)O)c3nc4sc5c(c4c(=O)n3c2)CCCC5)c1
inconclusive: EC50 (Streptokinase A) 16.4 µM | EC50 (Streptococcus) 18.5 µM
inactive: IC50 [12] 46.2 µM | IC50 [13] 51.6 µM
active: CC50 [7] 29.1 µM | EC50 [8] 2.67 µM | IC50 [9] 1.49 µM | IC50 [10] 6.24 µM | IC50 [11] 2.14 µM

O=C(Cn1c(/C=C/c2ccccc2)nc2ccccc21)Nc1ccc(F)cc1
inactive: IC50 (Coagulation factor XII) > 50 µM | IC50 [14] 12.2 µM | IC50 [15] 83.3 µM
active: AC50 (HeLa) 301 µM | IC50 [16] 8.74 µM

CCc1nnc(NC(=O)c2ccc(S(=O)(=O)N3CCCc4ccccc43)cc2)o1
> 150 µM (not active): EC50 (Streptokinase A)
active: EC50 [8] 1.21 µM | EC50 [17] 2.19 µM | EC50 [18] 5.54 µM | EC50 (Streptococcus) 13.3 µM | IC50 [19] 4.33 µM

Cc1cccc(N(C(=O)c2nsc(Cl)c2Cl)C(C(=O)NC2CCCC2)c2ccc(O)cc2)c1C (stereo not drawn)
inactive: EC50 [22] > 53 µM | IC50 [23] > 20 µM
active: CC50 [20] 39 µM | IC50 [21] 6.4 µM

O=C1C=CC(=Nc2ccc3c(c2)Cc2cc(F)ccc2-3)O1
active: EC50 [24] 7.26 µM
